Assay results reported in PubChem BioAssay AID248 (DTP/NCI, 2004).
Values joined by “and” are separate entries in the source; they are usually repeats but may differ in a detail not shown here. Identical values can stand only once. Toxic doses and inconclusive results are not listed. Cut-off read from the data, not from the text of the source: active = T/C of 150% or more; inactive = T/C below 125%.

Tested on: L1210 leukemia ip in BDF1 mice, survival T/C
Assay: NCI In Vivo Anticancer Drug Screen. Data for tumor model L1210 Leukemia (intraperitoneal) in B6D2F1 (BDF1) mice
Settings: endpoint: mean survival time, higher = longer survival
Procedure, shortened: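 In this screen, tumor-bearing mice given compound are compared to those given vehicle, and their survival values are reported as a treated-to-control quotient.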

[1] = dose: 100.0 mg/kg/injection, schedule: Q01DX001 (ip), vehicle: saline
[2] = dose: 200.0 mg/kg/injection, schedule: Q01DX001 (ip), vehicle: saline
[3] = dose: 400.0 mg/kg/injection, schedule: Q01DX001 (ip), vehicle: saline
[4] = dose: 100.0 mg/kg/injection, schedule: Q04DX003 (ip), vehicle: saline with Tween-80
[5] = dose: 200.0 mg/kg/injection, schedule: Q04DX003 (ip), vehicle: saline with Tween-80
[6] = dose: 400.0 mg/kg/injection, schedule: Q04DX003 (ip), vehicle: saline with Tween-80
[7] = dose: 50.0 mg/kg/injection, schedule: Q01DX001 (ip), vehicle: Klucel (hydroxypropylcellulose) (HPC)
[8] = dose: 100.0 mg/kg/injection, schedule: Q01DX001 (ip), vehicle: Klucel (hydroxypropylcellulose) (HPC)
[9] = dose: 200.0 mg/kg/injection, schedule: Q01DX001 (ip), vehicle: Klucel (hydroxypropylcellulose) (HPC)
[10] = dose: 50.0 mg/kg/injection, schedule: Q01DX009 (ip), vehicle: Klucel (hydroxypropylcellulose) (HPC)
[11] = dose: 100.0 mg/kg/injection, schedule: Q01DX009 (ip), vehicle: Klucel (hydroxypropylcellulose) (HPC)
[12] = dose: 50.0 mg/kg/injection, schedule: Q01DX009 (ip), vehicle: saline with Tween-80
[13] = dose: 100.0 mg/kg/injection, schedule: Q01DX009 (ip), vehicle: saline with Tween-80
[14] = dose: 200.0 mg/kg/injection, schedule: Q01DX009 (ip), vehicle: saline with Tween-80
[15] = dose: 200.0 mg/kg/injection, schedule: Q01DX009 (ip), vehicle: Klucel (hydroxypropylcellulose) (HPC)

Measured: T/C

NC(=O)OCCCl
inactive: dose: 100.0 mg/kg/injection, schedule: Q04DX002 (ip), vehicle: saline 98 % of control | dose: 200.0 mg/kg/injection, schedule: Q04DX002 (ip), vehicle: saline 109 % of control | dose: 400.0 mg/kg/injection, schedule: Q04DX002 (ip), vehicle: saline 102 % of control

Cc1cc2oc(=O)c3c(c2c(O)c1CN1CCCC1)CCCC3
inactive: [1] 92 % of control | [2] 89 % of control | [3] 98 % of control

C=CCNc1nnnn1CC=C
inactive: [4] 102 % of control | [5] 102 % of control | [6] 96 % of control

N#CC(C#N)=CN1CCCC1
inactive: dose: 5.0 mg/kg/injection, schedule: Q01DX009 (ip), vehicle: saline with Tween-80 89 % of control | dose: 10.0 mg/kg/injection, schedule: Q01DX009 (ip), vehicle: saline with Tween-80 91 % of control | dose: 20.0 mg/kg/injection, schedule: Q01DX009 (ip), vehicle: saline with Tween-80 93 % of control

[Ni+2].[O-]c1ccc(Cl)cc1C=NCc1ccccn1.[O-]c1ccc(Cl)cc1C=NCc1ccccn1
inactive: [4] 93 % of control | [5] 93 % of control

C=CCCCCCCCCC(=O)NC[n+]1cccc(O)c1
inactive: [4] 87 % of control

Cc1cc(C(c2ccccc2)c2ccccc2)cc(C)c1OCc1ccccc1
inactive: [7] 93 % of control | [8] 93 % of control | [9] 90 % of control

CCCCCCCCCCCCCCCCN(C)S(=O)(=O)c1ccc(N2CCOCC2)c(N)c1
inactive: dose: 100.0 mg/kg/injection, schedule: Q04DX003 (ip), vehicle: gum acacia 88 % of control | dose: 200.0 mg/kg/injection, schedule: Q04DX003 (ip), vehicle: gum acacia 93 % of control | dose: 400.0 mg/kg/injection, schedule: Q04DX003 (ip), vehicle: gum acacia 86 % of control

O=C(O)c1ccccc1SCc1cc(=O)[nH]c(=O)[nH]1
inactive: [4] 102 % of control | [5] 102 % of control | [6] 98 % of control

NCNc1nc(NCN)nc(N(CN)CN)n1
inactive: [4] 92 % of control | [5] 88 % of control | [6] 88 % of control

COc1cc(OC(=O)Nc2ccc([N+](=O)[O-])cc2OC)ccc1C=O
inactive: dose: 25.0 mg/kg/injection, schedule: Q01DX009 (ip), vehicle: Klucel (hydroxypropylcellulose) (HPC) 92 % of control | [10] 92 % of control | [11] 105 % of control and 88 % of control

O=[As](O)(CC(O)c1ccccc1)c1ccccc1 (stereo not given)
inactive: dose: 6.25 mg/kg/injection, schedule: Q01DX001 (ip), vehicle: saline with Tween-80 97 % of control | dose: 12.5 mg/kg/injection, schedule: Q01DX001 (ip), vehicle: saline with Tween-80 103 % of control

CCN(CC)CC(=O)NCC(CCCN(C)C)(CCCN(C)C)c1cccc2ccccc12
inactive: dose: 12.5 mg/kg/injection, schedule: Q01DX009 (ip), vehicle: saline 96 % of control | dose: 25.0 mg/kg/injection, schedule: Q01DX009 (ip), vehicle: saline 91 % of control | dose: 25.0 mg/kg/injection, schedule: Q04DX002 (ip), vehicle: saline 93 % of control | dose: 50.0 mg/kg/injection, schedule: Q01DX009 (ip), vehicle: saline 86 % of control | dose: 50.0 mg/kg/injection, schedule: Q04DX002 (ip), vehicle: saline 100 % of control

Cc1ccc([N+](=O)[O-])cc1CN(CCO)CCO
inactive: [1] 101 % of control | [2] 95 % of control | [3] 98 % of control

N#C/C(=N\O)C(N)=O
inactive: [1] 102 % of control and 103 % of control | [2] 98 % of control and 107 % of control | [3] 93 % of control and 107 % of control

O=C(COc1ccc(Cl)cc1C(=O)O)Nc1cccc(NC(=O)Nc2ccc(S(=O)(=O)F)cc2)c1
inactive: [8] 91 % of control | [9] 101 % of control | dose: 400.0 mg/kg/injection, schedule: Q01DX001 (ip), vehicle: Klucel (hydroxypropylcellulose) (HPC) 93 % of control

CCCCCCCCCCCCc1ccc2c(ccc3ccccc32)c1
inactive: [1] 95 % of control | [2] 98 % of control | [3] 98 % of control

C=C1C(=O)OC2CC(C)C3C4OC4C(O)C3(C)C(O)C12 (stereo not given)
inactive: dose: 9.38 mg/kg/injection, schedule: Q01DX009 (ip), vehicle: saline with Tween-80 104 % of control | dose: 18.75 mg/kg/injection, schedule: Q01DX009 (ip), vehicle: saline with Tween-80 106 % of control | dose: 37.5 mg/kg/injection, schedule: Q01DX009 (ip), vehicle: saline with Tween-80 102 % of control

COc1ccc(C(=O)C(C)C=O)c(OCc2ccccc2)c1OC (stereo not given)
inactive: [12] 98 % of control | [13] 96 % of control | [4] 114 % of control | [14] 93 % of control | [5] 95 % of control | dose: 400.0 mg/kg/injection, schedule: Q01DX009 (ip), vehicle: saline with Tween-80 97 % of control | [6] 103 % of control

CCOC(=O)C/C(=N\NC(=O)c1ccccc1O)C(=O)OCC
inactive: [10] 101 % of control | [11] 107 % of control | [15] 102 % of control | dose: 400.0 mg/kg/injection, schedule: Q01DX009 (ip), vehicle: Klucel (hydroxypropylcellulose) (HPC) 101 % of control

Cc1ccc(P(=O)(O)O)c([N+](=O)[O-])c1
inactive: [1] 94 % of control | [2] 92 % of control

C=CCOCC(O)CN(CC(C)C)CC(C)C (stereo not given)
inactive: [11] 112 % of control | dose: 100.0 mg/kg/injection, schedule: Q04DX003 (ip), vehicle: Klucel (hydroxypropylcellulose) (HPC) 95 % of control | [15] 101 % of control | dose: 200.0 mg/kg/injection, schedule: Q04DX003 (ip), vehicle: Klucel (hydroxypropylcellulose) (HPC) 88 % of control | dose: 400.0 mg/kg/injection, schedule: Q04DX003 (ip), vehicle: Klucel (hydroxypropylcellulose) (HPC) 105 % of control

O=C1NC(=O)C(c2ccc3c(c2)OCO3)N1 (stereo not given)
inactive: [4] 104 % of control | [5] 102 % of control | [6] 101 % of control

CC(=O)OC(C)(C)Cc1ccccc1
inactive: [13] 90 % of control | [14] 108 % of control

Clc1ccc(CNc2ncnc3[nH]ncc23)cc1
inactive: dose: 100.0 mg/kg/injection, schedule: Q01DX001 (ip), vehicle: other 100 % of control | dose: 100.0 mg/kg/injection, schedule: Q04DX003 (ip), vehicle: other 104 % of control | dose: 200.0 mg/kg/injection, schedule: Q01DX001 (ip), vehicle: other 106 % of control | dose: 200.0 mg/kg/injection, schedule: Q04DX003 (ip), vehicle: other 113 % of control | dose: 400.0 mg/kg/injection, schedule: Q01DX001 (ip), vehicle: other 108 % of control | dose: 400.0 mg/kg/injection, schedule: Q04DX003 (ip), vehicle: other 103 % of control

COC12CCCC1S(=O)(=O)C2 (stereo not given)
inactive: dose: 25.0 mg/kg/injection, schedule: Q01DX009 (ip), vehicle: saline with Tween-80 102 % of control | [12] 98 % of control

COC(/C=C/c1ccccc1)=N\S(=O)(=O)c1ccccc1
inactive: [7] 98 % of control | [8] 100 % of control | [9] 107 % of control

CC(C)(C)N(CSc1ccc(Cl)cc1)CSc1ccc(Cl)cc1
inactive: [1] 104 % of control | [2] 104 % of control

Oc1ccc(Br)cc1/C=N/NC(=S)Nc1cccc2cccnc12
inactive: [2] 94 % of control | [3] 96 % of control
